5 compounds from ChEMBL document CHEMBL1151492, “elastase inhibitors containing conformationally restricted lactams as P3-P2 dipeptide replacements” (Bioorg Med Chem Lett, 1993) can be followed below.

“And” between values parts separate entries of the source, which are not always exact repeats. Equal entries are not always repeated.

For orientation: IC50 means the concentration at which inhibition is half-maximal.

In one assay the target is T1, Neutrophil elastase (Homo sapiens, UniProt P08246).
T1 sequence (P08246 whole entry): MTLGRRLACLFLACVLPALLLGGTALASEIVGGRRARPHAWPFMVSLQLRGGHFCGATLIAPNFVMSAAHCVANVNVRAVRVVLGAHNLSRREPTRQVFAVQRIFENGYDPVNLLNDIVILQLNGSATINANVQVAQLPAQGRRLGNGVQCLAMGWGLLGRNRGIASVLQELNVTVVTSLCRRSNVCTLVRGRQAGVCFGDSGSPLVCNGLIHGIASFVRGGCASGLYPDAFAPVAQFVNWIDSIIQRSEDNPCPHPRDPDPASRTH
The assay can be described thus: In vitro inhibitory activity against human leukocyte elastase.

In the next assay the test system is Cricetinae gen. sp. Kind of assay: Effective dose required to inhibit elastase induced pulmonary hemorrhage (EPH) lung model in hamsters. Format: functional, Cricetulus griseus.

For `CC(C)C(NC(=O)CN1C(=O)[C@@H](NC(=O)c2ccc(C(=O)NS(=O)(=O)c3ccc(Cl)cc3)cc2)C[S+]([O-])c2ccccc21)C(=O)C(F)(F)F` (stereo not given in full), the IC50 against Neutrophil elastase was 6.8 µM and 6.2 µM.

In the assay on Cricetinae gen. sp., `CC(C)C(NC(=O)CN(C(=O)[C@@H](NC(=O)c1ccc(C(=O)NS(=O)(=O)c2ccc(Cl)cc2)cc1)C(C)C)C1Cc2ccccc2C1)C(=O)C(F)(F)F` (stereo not given in full) returned an ED50 of 4.8 µM.

`CC(C)C(NC(=O)CN1CCCC[C@H](NC(=O)c2ccc(C(=O)NS(=O)(=O)c3ccc(Cl)cc3)cc2)C1=O)C(=O)C(F)(F)F` (stereo not given in full) gave an IC50 on Neutrophil elastase of more than 5 µM. `CC(C)C(NC(=O)CN1CC[C@H](NC(=O)c2ccc(C(=O)NS(=O)(=O)c3ccc(Cl)cc3)cc2)C1=O)C(=O)C(F)(F)F` (stereo not given in full) registered a concentration for half-maximal inhibition (IC50) against Neutrophil elastase of more than 5 µM. On the same count and under the same terms, the same measure for `CC(C)C(NC(=O)CN1CCC[C@H](NC(=O)c2ccc(C(=O)NS(=O)(=O)c3ccc(Cl)cc3)cc2)C1=O)C(=O)C(F)(F)F` (stereo not given in full): more than 5 µM.
